Test results published in ChEMBL document CHEMBL1141099, “Discovery of N-(2,6-dimethylphenyl)-substituted semicarbazones as anticonvulsants: hybrid pharmacophore-based design” (2005).

Experiments:
Rattus norvegicus [1] = assay: Number of rats protected at a dose of 30 mg/Kg when given oral at 1 hr upon maximal electroshock seizure; Total number of rats = 4; assay type: functional
Mus musculus [2] = assay: Minimum dose required for anticonvulsant activity when given i.p., at 0.5 hr in mice upon subcutaneous strychnine seizure; assay type: functional
Mus musculus [3] = assay: Minimum dose required for anticonvulsant activity when given i.p., at 2 hr in mice upon subcutaneous strychnine seizure; assay type: functional
Mus musculus [4] = assay: Minimum dose required for anticonvulsant activity when given i.p., at 4 hr in mice upon maximal electroshock seizure; assay type: functional
Mus musculus [5] = assay: Minimum dose required for anticonvulsant activity when given i.p., at 0.5 hr in mice upon neurotoxicity seizure using rotarod test; assay type: functional
Rattus norvegicus [6] = assay: Number of rats protected at a dose of 30 mg/Kg when given oral at 0.5 hr upon maximal electroshock seizure; Total number of rats = 4; assay type: functional
Mus musculus [7] = assay: Minimum dose required for anticonvulsant activity when given i.p., at 0.5 hr in mice upon subcutaneous pentylenetetrazole seizure; assay type: functional
Rattus norvegicus [8] = assay: Number of rats protected at a dose of 30 mg/Kg when given oral at 4 hr upon maximal electroshock seizure; Total number of rats = 4; assay type: functional
Mus musculus [9] = assay: Minimum dose required for anticonvulsant activity when given i.p., at 0.5 hr in mice upon maximal electroshock seizure; assay type: functional
Rattus norvegicus [10] = assay: Number of rats protected at a dose of 30 mg/Kg when given oral at 0.25 hr upon maximal electroshock seizure; Total number of rats = 4; assay type: functional
Rattus norvegicus [11] = assay: Number of rats protected at a dose of 30 mg/Kg when given oral at 2 hr upon maximal electroshock seizure; Total number of rats = 4; assay type: functional
Mus musculus [12] = assay: Post treatment activity score for CNS study using a actophotometer at a dose of 100 mg/Kg after 0.5 hr when given i.p., in mice (No. of animals 6); Control (24h before) 224
Mus musculus [13] = assay: Post treatment activity score for CNS study using a actophotometer at a dose of 100 mg/Kg after 1 hr when given i.p., in mice (No. of animals 6); Control (24h before) 224
Rattus norvegicus [14] = organism: Rattus norvegicus; assay: Ex vitro percentage inhibition activity against GABA-T enzyme at a concentration of 1.25 uM after 3 h; assay type: functional
Rattus norvegicus [15] = organism: Rattus norvegicus; assay: Ex vitro percentage inhibition activity against GABA-T enzyme at a concentration of 1.25 uM after 6 h; assay type: functional
[16] = molecular target: 4-aminobutyrate aminotransferase, mitochondrial (Rattus norvegicus) (UniProt P50554); assay: In vitro percentage inhibition activity against GABA-T enzyme at a concentration of 1.25 uM after 6 h
[17] = molecular target: 4-aminobutyrate aminotransferase, mitochondrial (Rattus norvegicus) (UniProt P50554); assay: In vitro percentage inhibition activity against GABA-T enzyme at a concentration of 1.25 uM after 3 h
Rattus norvegicus [18] = organism: Rattus norvegicus; assay: Ex vitro percentage inhibition activity against GABA-T enzyme at a concentration of 1.25 uM after 4.5 h; assay type: functional
[19] = molecular target: 4-aminobutyrate aminotransferase, mitochondrial (Rattus norvegicus) (UniProt P50554); assay: In vitro percentage inhibition activity against GABA-T enzyme at a concentration of 1.25 uM after 4.5 h
Mus musculus [20] = assay: Minimum dose required for anticonvulsant activity when given i.p., in mice upon neurotoxicity seizure using rotarod test
Mus musculus [21] = assay: Mean sleeping time evaluated for CNS study using the pentobarbital-induced narcosis model at a dose of 100 mg/Kg when given i.p., in mice (No. of animals 6)
Rattus norvegicus [22] = assay: Effect on GABA level in rat whole brain concentration after 2 hr post-treatment at a dose of 100 mg/Kg when given i.p.; Control 48.4; assay type: functional
Rattus norvegicus [23] = assay: Effect on GABA level in rat whole brain concentration after 7 days post-treatment at a dose of 30 mg/Kg when given orally; Control 50.5; assay type: functional

Chain of 4-aminobutyrate aminotransferase, mitochondrial (Rattus norvegicus) (P50554 28-500 limits assumed): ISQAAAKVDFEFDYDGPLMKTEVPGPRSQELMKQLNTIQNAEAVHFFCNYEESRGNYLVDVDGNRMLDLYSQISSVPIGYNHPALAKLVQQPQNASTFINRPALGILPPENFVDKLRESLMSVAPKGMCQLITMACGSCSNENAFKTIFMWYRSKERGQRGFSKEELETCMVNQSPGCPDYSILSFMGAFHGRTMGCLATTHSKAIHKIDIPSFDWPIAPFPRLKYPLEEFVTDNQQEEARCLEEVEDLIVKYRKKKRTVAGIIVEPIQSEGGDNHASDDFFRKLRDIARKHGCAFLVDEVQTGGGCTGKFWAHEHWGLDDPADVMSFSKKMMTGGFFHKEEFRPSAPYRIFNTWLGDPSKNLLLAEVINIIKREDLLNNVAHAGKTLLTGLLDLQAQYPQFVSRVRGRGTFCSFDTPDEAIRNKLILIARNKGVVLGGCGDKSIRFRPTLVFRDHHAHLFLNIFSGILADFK

| SMILES | Activity (Rattus norvegicus [1]) | STY seizure (Mus musculus [2]) [mg/kg] | STY seizure (Mus musculus [3]) [mg/kg] | MES (Mus musculus [4]) [mg/kg] | NT (Mus musculus [5]) [mg/kg] | Activity (Rattus norvegicus [6]) | PTZ seizure (Mus musculus [7]) [mg/kg] | Activity (Rattus norvegicus [8]) | MES (Mus musculus [9]) [mg/kg] | Activity (Rattus norvegicus [10]) | Activity (Rattus norvegicus [11]) | other results |
| --- | --- | --- | --- | --- | --- | --- | --- | --- | --- | --- | --- | --- |
| CC(C)=NNC(=O)Nc1c(C)cccc1C | 4 | 100 | 100 | 300 | 300 | 4 | 300 | 2 | 100 | 3 | 3 | – |
| Cc1cccc(C)c1NC(=O)N/N=C/c1ccccc1Cl | 1 | 30 | 100 | 300 | 300 | 1 | 300 | 4 | 100 | 2 | 1 | – |
| Cc1cccc(C)c1NC(=O)/N=N/c1c(O)[nH]c2ccc(F)cc12 | 1 | 30 | 100 | 300 | 300 | 1 | 300 | 3 | 100 | 1 | 1 | Activity (Mus musculus [12]): 204; Activity (Mus musculus [13]): 194 |
| NNCCc1ccccc1 [PHENELZINE] | – | – | – | – | – | – | – | – | – | – | – | Inhibition (Rattus norvegicus [14]): 25%; Inhibition (Rattus norvegicus [15]): 65%; inhibition [16]: 62%; inhibition [17]: 0%; Inhibition (Rattus norvegicus [18]): 85%; inhibition [19]: 75% |
| Cc1cccc(C)c1NC(=O)NN=C(Cc1ccccc1)Cc1ccccc1 | 1 | 300 | – | 300 | 300 | 1 | – | 0 | 300 | 0 | 0 | – |
| Cc1cccc(C)c1NC(=O)NN=C(c1ccccc1)c1ccccc1 | 1 | 300 | – | 300 | 300 | 1 | 300 | 0 | 100 | 1 | 1 | – |
| CCCC(CCC)C(=O)O [VALPROIC ACID] | – | – | – | – | – | – | – | – | – | – | – | NT (Mus musculus [20]): 300 mg/kg |
| Cc1cccc(C)c1NC(=O)N/N=C/c1ccc([N+](=O)[O-])cc1 | 2 | 30 | 100 | 300 | 300 | 1 | 300 | 1 | 100 | 1 | 1 | – |
| Cc1cccc(C)c1NC(=O)N/N=C/c1ccccc1 | 3 | 30 | 100 | 100 | 300 | 3 | 300 | 4 | 100 | 1 | 3 | – |
| Cc1cccc(C)c1NC(=O)N/N=C\c1ccco1 | 1 | 100 | 300 | 300 | 300 | 2 | 300 | 3 | 100 | 0 | 4 | – |
| CCC1(c2ccccc2)C(=O)NC(=O)NC1=O [PHENOBARBITAL] | – | – | – | – | – | – | – | – | – | – | – | NT (Mus musculus [20]): 100 mg/kg; Time (Mus musculus [21]): 54 min |
| C/C(=N\NC(=O)Nc1c(C)cccc1C)c1ccc([N+](=O)[O-])cc1 | 2 | 100 | 300 | 300 | 300 | 2 | 300 | 1 | 300 | 1 | 3 | – |
| Cc1cccc(C)c1NC(=O)NN=C1CCCC1 | 1 | – | – | 300 | 300 | 2 | 300 | 1 | 100 | 2 | 3 | – |
| C/C(=N\NC(=O)Nc1c(C)cccc1C)c1ccccc1O | 2 | 100 | 300 | 300 | – | 1 | 300 | 4 | 100 | 3 | 3 | – |
| Cc1cccc(C)c1NC(=O)NN=C1CCCCC1 | 2 | 100 | 300 | 300 | 300 | 1 | – | 3 | 100 | 1 | 4 | – |
| C/C(=N\NC(=O)Nc1c(C)cccc1C)c1cccc(N)c1 | 1 | 100 | 300 | 300 | 300 | 3 | – | 3 | 100 | 1 | 2 | – |
| C/C(=N\NC(=O)Nc1c(C)cccc1C)c1ccccc1 | 4 | 30 | 100 | 300 | – | 2 | 300 | 3 | 100 | 1 | 3 | – |
| C/C(CC(C)C)=N/NC(=O)Nc1c(C)cccc1C | 2 | 30 | 100 | 300 | – | 2 | – | 2 | 100 | 1 | 4 | – |
| CN1C(=O)CC(=O)N(c2ccccc2)c2cc(Cl)ccc21 [CLOBAZAM] | – | – | – | – | – | – | – | – | – | – | – | Activity (Rattus norvegicus [22]): 101 ug/100mg of tissue; Activity (Rattus norvegicus [23]): 110 ug/100mg of tissue |
| COc1ccc(/C=N/NC(=O)Nc2c(C)cccc2C)cc1 | 3 | 30 | 100 | 300 | 300 | 4 | 300 | 3 | 100 | 1 | 3 | – |
